Measured values reported in PMC3539664, “Convergent synthesis and evaluation of ^18F-labeled azulenic COX2 probes for cancer imaging” (Frontiers in Oncology, 2013).
“Also recorded” adds a separate entry of the source.

Tests used:
[1] = Biodistribution by gamma counting of tissues after imaging; type: in vivo; conditions: non-fasted tumor-bearing mice (n = 3), 150 min post injection (Figure 5)
From the text: After the imaging session, the mice were euthanized and hearts, muscles, blood, livers, spleens, kidneys, stomachs, brains, intestines, tumors, and lungs were retrieved. The tissues were weighed and assessed for ^18F radioactivity using a gamma counter (CRC-15W, Capintec, Ramsey, NJ, USA).

[2] = system: C57MG tumors; test: In vivo microPET/CT imaging of COX2 in tumor-bearing mouse model; set-up: species or system mice
Description: The experimental protocol for animal imaging was approved by the Vanderbilt Medical Center Institutional Animal Care and Use Committee. Nude mice 6–8 weeks of age (n = 8, from Jackson Laboratory, Bar Harbor, ME, USA) were implanted subcutaneously under anesthesia (isoflurane mixed […]) with 1.0 × 10^6 C57MG cells in the mammary fat pad. The progress of tumor growth was monitored via every-other-day measurement of tumor size and animal weight. When the tumors reached approximately 4 mm in diameter, in vivo PET imaging was performed.
Positron emission tomography imaging was performed using the microPET Focus 220 (Siemens Pre-clinical, Knoxville, TN, USA) in a static acquisition mode for 30 min at 60, 120, and 150 min after injection of ^18F-COX2 probe 13 (150–200 μCi, 100–130 μL) into awake, non-fasted mice (n = 8) via the tail vein. To obtain whole-body scans, mice were placed in a supine position. The data were acquired in a 3-D mode with an axial span of approximately 8 cm. During the scanning, the animals were anesthetized using isoflurane and the temperature inside the scanner was maintained at 30°C using a pad connected to a circulating warm water bath. After PET imaging, a CT image was acquired using the microCAT II (Siemens Pre-clinical, Knoxville, TN, USA) using the same animal holder with the subjects maintained under anesthesia throughout, and then the mice were immediately euthanized upon completion of the CT scan. PET images were reconstructed using the iterative MAP reconstruction algorithm with 18 iterations and a beta smoothing value of 0.001 into 128 × 128 × 95 slices with a voxel size of 0.475 mm × 0.475 mm × 0.796 mm. The PET and CT images were co-registered using the imaging tool AMIDE ([Loening and Gambhir, 2003]).

- Hepatic uptake of the probe (PET) ([2]; non-fasted C57MG tumor-bearing mice, i.v., PET imaging): predominant hepatic uptake
- Tumor accumulation and retention of the probe (PET, PET/CT) ([2]; non-fasted nude mice with C57MG mammary fat pad tumors, i.v. tail vein, static whole-body scan 150 min after administration, vs background p < 0.05): significant accumulation in the tumor
SMILES: Cc1csc(Cc2c3cccccc-3c(C(=O)c3ccc([18F])cc3)c2C)n1 [compound 13]
- Biodistribution: tissue uptake (% injection dose/g tissue) [1]: the probe accumulated in the tumor; also recorded: highest uptake was detected in the liver, followed by the intestine
- Bone signal / in vivo defluorination (PET) ([2]; non-fasted C57MG tumor-bearing mice, i.v., up to 2.5 h post injection): negligible signal in the bone; also recorded: no defluorination of the probe in vivo
